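Interpolation was linear, between the two tested concentrations surrounding the appropriate level; five concentrations were tested over 48 hours in 96-well plates. GI50 marks 50% less growth.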 The source made the active and inactive calls. Rule as the data show it: active = GI50 up to about 1.1 µM and inactive = higher.
Key:
Assay in all cases: NCI-60 cell line screen, 48 h
[1] = system: SK-MEL-2
[2] = system: MCF7
[3] = system: HCT-116
[4] = system: MDA-N
[5] = system: OVCAR-5
[6] = system: 786-0
[7] = system: Malme-3M
[8] = system: OVCAR-3
[9] = system: IGROV-1
[10] = system: SK-MEL-5
[11] = system: PC-3
[12] = system: NCI-H23
[13] = system: K562
[14] = system: MDA-MB-435
[15] = system: HCT-15
[16] = system: SR
[17] = system: NCI-H460
[18] = system: UO-31
[19] = system: HL-60

Measured: GI50

CN(NC(=O)c1ccc(Cl)cc1)C1=NCCCCN1
> 100 µM: [15]
inactive: [1] > 100 µM | [2] > 100 µM | [3] > 100 µM | [4] > 100 µM | [5] > 100 µM | [6] > 100 µM | [7] > 100 µM | [8] > 100 µM | [9] > 100 µM | [10] > 100 µM | [11] > 100 µM | [12] > 100 µM | [13] > 100 µM | [14] > 100 µM | [16] > 100 µM | [17] > 100 µM | [18] > 100 µM | [19] > 100 µM

COC(=O)C1(C)OC(C)=NC1(C(=O)OC)C(=O)OC (centres undefined)
> 100 µM: [15]
inactive: [1] > 100 µM | [2] > 100 µM | [3] > 100 µM | [4] > 100 µM | [5] > 100 µM | [6] > 100 µM | [7] > 100 µM | [8] > 100 µM | [9] > 100 µM | [10] > 100 µM | [11] > 100 µM | [12] > 100 µM | [13] > 100 µM | [14] > 100 µM | [16] > 100 µM | [17] > 100 µM | [18] > 100 µM | [19] 2.18 µM

CCN1CCN(c2nc3ccccc3nc2C(=O)c2ccc(OC)c(OC)c2)CC1
inactive: [1] 47.8 µM | [2] 18.2 µM | [3] 5.31 µM | [4] 25.4 µM | [5] 41.7 µM | [6] 10.7 µM | [7] 16.4 µM | [8] 22.2 µM | [9] 16.6 µM | [11] 32.7 µM | [12] 24.3 µM | [13] 12.6 µM | [14] 25.4 µM | [16] 7.06 µM | [17] 6.81 µM | [18] 13.7 µM | [19] 44.1 µM
13.7 µM: [15]

COCCOCCOCCOc1ccc(C(C#N)N(CCc2ccccc2)C(=O)c2cc(C(=O)N(CCc3ccccc3)C(C#N)c3ccc(OCCOCCOCCOC)cc3)cc(C(=O)N(CCc3ccccc3)C(C#N)c3ccc(OCCOCCOCCOC)cc3)c2)cc1 (centres undefined)
> 100 µM: [15]
inactive: [1] > 100 µM | [2] > 100 µM | [3] > 100 µM | [4] > 100 µM | [5] > 100 µM | [6] > 100 µM | [7] > 100 µM | [8] > 100 µM | [9] > 100 µM | [10] > 100 µM | [11] > 100 µM | [12] > 100 µM | [13] > 100 µM | [14] > 100 µM | [16] > 100 µM | [17] > 100 µM | [18] > 100 µM | [19] > 100 µM

O=C1C(S(=O)(=O)c2ccccc2)=C(CS(=O)(=O)c2ccccc2)[C@@H](OCc2ccccc2)[C@@H]1OCc1ccccc1
18.2 µM: [15]
inactive: [1] 16.2 µM | [2] 27.4 µM | [3] 13.6 µM | [4] 23 µM | [5] 27.9 µM | [6] 26.4 µM | [7] 17.6 µM | [8] 12.5 µM | [9] 17.1 µM | [10] 18.2 µM | [11] 25.8 µM | [12] 16.9 µM | [13] 14.4 µM | [14] 26.9 µM | [16] 14.5 µM | [17] 21 µM | [18] 18.5 µM | [19] 17.1 µM

C1=CN2C[n+]3ccc4ccccc4c3N=C2c2ccccc21
inactive: [1] 2.67 µM | [3] 2.82 µM | [4] 2.26 µM | [5] 16.1 µM | [6] 2.88 µM | [9] 3.74 µM | [11] 8.2 µM | [12] 2.76 µM | [13] 1.24 µM | [14] 2.19 µM | [17] 3.54 µM | [18] 21 µM | [19] 2.52 µM
66.4 µM: [15]
active: [2] 0.929 µM | [7] 0.632 µM | [8] 0.652 µM | [10] 0.308 µM | [16] 1.11 µM

CO/C=C(/C(=O)OC)[C@@H]1C[C@@H]1c1ccc2ccccc2c1
18.8 µM: [15]
inactive: [1] 15.2 µM | [2] 30.3 µM | [3] 18.1 µM | [4] 20.4 µM | [5] 97.5 µM | [6] 33.5 µM | [7] 20.2 µM | [8] 24.6 µM | [9] 20.5 µM | [10] 16.4 µM | [11] 27.7 µM | [12] 28.2 µM | [13] 23 µM | [14] 14.7 µM | [16] 13.2 µM | [17] 27.2 µM | [18] 30.3 µM | [19] 18.3 µM

NC(=O)C(=O)c1ncn(Cc2ccccc2)c1N
inactive: [1] > 100 µM | [2] > 100 µM | [3] > 100 µM | [4] > 100 µM | [5] > 100 µM | [6] > 100 µM | [7] > 100 µM | [8] > 100 µM | [9] > 100 µM | [10] > 100 µM | [11] > 100 µM | [12] > 100 µM | [13] > 100 µM | [14] > 100 µM | [16] > 100 µM | [17] > 100 µM | [19] > 100 µM
> 100 µM: [15]

C/C(=C1\C(=O)C(c2ccccc2)N(c2ccccc2)C1=O)c1ccc(Cl)cc1 (centres undefined)
inactive: [1] 20.1 µM | [2] 35.1 µM | [3] 16.4 µM | [4] 19.7 µM | [6] 18.3 µM | [7] 19.7 µM | [8] 15.6 µM | [9] 18.7 µM | [10] 14.5 µM | [11] 14.3 µM | [12] 17.1 µM | [13] 30.1 µM | [14] 17.4 µM | [16] 20.6 µM | [17] 29.6 µM | [18] 19.8 µM | [19] 28.6 µM
19.1 µM: [15]

NC(=O)Cc1nc2c(N)ncnc2n1C1OC(CO)C(O)C1O (centres undefined)
> 100 µM: [15]
inactive: [1] > 100 µM | [2] > 100 µM | [3] > 100 µM | [4] > 100 µM | [6] > 100 µM | [7] > 100 µM | [8] > 100 µM | [9] > 100 µM | [10] > 100 µM | [11] > 100 µM | [12] > 100 µM | [13] > 100 µM | [14] > 100 µM | [16] > 100 µM | [17] > 100 µM | [18] > 100 µM | [19] > 100 µM

Cc1ccc(SCC(CF)OC(C)n2cnc3c(O)nc(N)nc32)cc1 (centres undefined)
inactive: [1] > 100 µM | [2] 34.9 µM | [3] > 100 µM | [4] > 100 µM | [5] > 100 µM | [6] > 100 µM | [7] > 100 µM | [8] 88.7 µM | [9] > 100 µM | [10] 18.1 µM | [11] > 100 µM | [12] 75.5 µM | [14] 63.8 µM | [16] 98.4 µM | [17] > 100 µM | [18] > 100 µM | [19] 41.1 µM
> 100 µM: [15]

Reference: ChEMBL document CHEMBL1201862, “PubChem BioAssay data set” (2004)
